Measured values published in article PMC3653948, “PDZ Domain-Mediated Interactions of G Protein-Coupled Receptors with Postsynaptic Density Protein 95: Quantitative Characterization of Interactions” (PLoS ONE, 2013).
Read-outs that look alike come from different tables or passages of the source. Peptide text beside a SMILES is read from it.

What was measured:
PSD-95 PDZ1 [1] = biological target: T1, PSD-95 PDZ1 (Homo sapiens, UniProt P78352); test: FP competition assay, PSD-95 PDZ1 (probe Cy5-KIF1Bα); format: binding; conditions: 25 nM Cy5-KIF1Bα, 10 mM HEPES pH 7.4, 150 mM NaCl, 1% BSA, room temperature, read-out: K i PDZ1
T1 construct: PSD-95 PDZ1 (aa 61–151); made in house; host or cells: E. coli One Shot BL21 Star (DE3)
Description: (§4) FP measurements were performed in black, flat bottom 384-well NBS microplates (Corning) on a Synergy H4 microplatereader (BioTek Instruments) equipped with a 620/40 nm excitation filter, a 680/30 nm emission filter, and a 660 nm dichroic mirror. Polarization values were corrected with blank samples and samples with fluorescent probe alone. At least 10 data points were measured for each curve, and each data point was measured in triplicate. […] All FP measurements were performed in a buffer containing 10 mM HEPES pH 7.4, 150 mM NaCl, and 1% BSA and incubated at least 15 min at room temperature before reading. The signal was stable for more than an hour, showing that the reaction was at equilibrium.
(§5) For the competition binding curves, probe was mixed with a constant concentration of PDZ protein corresponding to the K d and a twofold dilution series of unlabeled peptide in a total volume of 30 µl. The baseline was determined using a sample containing only probe. The IC50 was determined by fitting to a 1∶1 binding model: Y = Ymax − Ymax × X/(X+IC50). The K i was calculated from the IC50 and from the K d for the interaction between the PDZ protein and the probe as described previously [38].

PSD-95 PDZ3 = biological target: T2, PSD-95 PDZ3 (Homo sapiens, UniProt P78352); test: FP competition assay, PSD-95 PDZ3 (probe Cy5-CRIPT); format: binding; conditions: read-out: K i PDZ3
T2 construct: made in house; host or cells: E. coli One Shot BL21 Star (DE3)
Description: We used a competition set-up, where a constant concentration of isolated PSD-95 PDZ domain and a labeled reference ligand was titrated with unlabeled peptides from the GPCR C-tail library, typically within a 1–512 µM concentration range, and the resulting curves were fitted to obtain the IC50, which was used to calculate the K i (Figure 1). Three Cy5-labeled peptides with well-documented interactions with PSD-95 were used as reference ligands for the competition assay: Cy5-KIF1Bα was used for PDZ1 [20], Cy5-GluN2B (formerly known as NR2B) was used for PDZ2 and PDZ1-2 [21], and Cy5-CRIPT was used for PDZ3 [22] (Table S1). Competition with unlabeled versions of the reference ligands was used to validate the FP assay by comparison with the literature (Table S2).
FP measurements were performed in black, flat bottom 384-well NBS microplates (Corning) on a Synergy H4 microplatereader (BioTek Instruments) equipped with a 620/40 nm excitation filter, a 680/30 nm emission filter, and a 660 nm dichroic mirror. Polarization values were corrected with blank samples and samples with fluorescent probe alone. At least 10 data points were measured for each curve, and each data point was measured in triplicate. 25 nM Cy5-labeled probe was used for each assay: Cy5-KIF1Bα for PDZ1, Cy5-GluN2B for PDZ2 and PDZ1-2, and Cy5-CRIPT for PDZ3. All FP measurements were performed in a buffer containing 10 mM HEPES pH 7.4, 150 mM NaCl, and 1% BSA and incubated at least 15 min at room temperature before reading. The signal was stable for more than an hour, showing that the reaction was at equilibrium.
Saturation binding curves were used to determine the functionality of the PDZ domains by comparison with literature values and to calculate K i values from competition curves. Saturation binding curves were performed by mixing probe with a twofold dilution series of PDZ protein in a total volume of 30 µl. The K d was determined by fitting to a 1∶1 binding model: Y = Ymax × X/(X+K d).
For the competition binding curves, probe was mixed with a constant concentration of PDZ protein corresponding to the K d and a twofold dilution series of unlabeled peptide in a total volume of 30 µl. The baseline was determined using a sample containing only probe. The IC50 was determined by fitting to a 1∶1 binding model: Y = Ymax − Ymax × X/(X+IC50). The K i was calculated from the IC50 and from the K d for the interaction between the PDZ protein and the probe as described previously.

PSD-95 PDZ1 [2] = biological target: T1, PSD-95 PDZ1; test: SPR steady-state binding to immobilized PSD-95 PDZ1
From the text: (§1) To confirm the affinities measured by FP using an orthogonal method and to get information about the kinetics of the GPCR–PDZ interactions, we used SPR. This label-free, surface sensitive technique measures the binding of a ligand to an immobilized protein as a function of time based on refractive index changes.
(§2) For each of the PSD-95 PDZ domains, we determined the K d and the stability of the complexes for selected GPCR C-tail peptides. The residence time τ ( = 1/k d) was used as a convenient measure of the stability of the complexes. […] The K d determined from the steady-state responses of a range of C-tail peptide concentrations (Figure 2B and Table S4) correlated well with the K i values obtained by FP (Figure S1).
(§3) A Biacore X100 (GE Healthcare) SPR instrument equilibrated to 25.0°C and equipped with a Sensor Chip CM5 (for PDZ1 and PDZ2) or CM4 (for PDZ3) (GE Healthcare) was used for the SPR measurements. The running buffer was HBS-EP+ (10 mM HEPES pH 7.4, 150 mM NaCl, 3 mM EDTA, 0.05% Surfactant P-20 (GE Healthcare)).
PDZ domains were immobilized by amine coupling at a flow rate of 5 µl/min on a surface activated by a 7 min injection of a 1∶1 mixture of 0.4 M 1-ethyl-3-(3-dimethylaminopropyl) carbodiimide (EDC) and 0.1 M N-hydroxysuccinimide (NHS). The remaining active groups were deactivated by a 7 min injection of 1 M ethanolamine HCl pH 8.5. 750 RU PDZ1, 780 RU PDZ2, and 410 RU PDZ3 were immobilized.
GPCR C-tail peptide samples were injected in increasing concentrations for 1 min with 1 min dissociation time at 30 µl/min. Reproducibility was tested by injecting the 20 µM sample again after the highest concentration sample. The binding curves were corrected by subtraction of buffer blanks and the response from a reference surface that was activated with EDC and NHS and deactivated with ethanolamine like the surface with immobilized PDZ domain. For peptides with a cysteine, 1 mM dithiothreitol (DTT) was added to the samples. Steady-state response curves were plotted from the responses 10 s before injection end. The K d was determined by fitting steady-state response curves to a 1∶1 binding model with a linear component to corrrect for low affinity binding, probably resulting from the immobilization: Y = Ymax × X/(X+K d)+B × X.

PSD-95 PDZ2 [3] = biological target: T3, PSD-95 PDZ2 (Homo sapiens, UniProt P78352); test: FP competition assay, PSD-95 PDZ2 (probe Cy5-GluN2B); format: binding; conditions: read-out: K i PDZ2
T3 construct: PDZ2 (aa 155–249); made in house; host or cells: E. coli One Shot BL21 Star (DE3)
Description: as §4, §5

PSD-95 PDZ2 [4] = biological target: T3, PSD-95 PDZ2; test: SPR steady-state binding to immobilized PSD-95 PDZ2
From the text: as §1, §2
as §3, with “Healthcare)). […]” for “Healthcare)).”
GPCR C-tail peptide samples were injected in increasing concentrations for 1 min with 1 min dissociation time at 30 µl/min. […] The K d was determined by fitting steady-state response curves to a 1∶1 binding model with a linear component to corrrect for low affinity binding, probably resulting from the immobilization: Y = Ymax × X/(X+K d)+B × X.

[5] = mean Ki ± SEM from two or more independent experiments
[6] = at least 15 min, Ki ± fitting error

Structure (SMILES)	Ki (PSD-95 PDZ1 [1]; [5]) [µM]	Ki (PSD-95 PDZ3) [µM]	Kd (PSD-95 PDZ1 [2]) [µM]	Ki (PSD-95 PDZ2 [3]) [µM]	Kd (PSD-95 PDZ2 [4]) [µM]	Ki (PSD-95 PDZ1 [1]; [6]) [µM]
CC[C@H](C)[C@H](NC(=O)[C@H](CC(=O)O)NC(=O)[C@H](CCC(N)=O)NC(=O)[C@H](CCCNC(=N)N)NC(=O)[C@H](CC(=O)O)NC(=O)[C@H](CC(=O)O)NC(=O)[C@@H](N)Cc1ccc(O)cc1)C(=O)N[C@H](C(=O)N[C@@H](CC(=O)O)C(=O)N[C@@H](CC(C)C)C(=O)N[C@@H](CCC(N)=O)C(=O)N[C@H](C(=O)N[C@@H](CCC(=O)O)C(=O)N[C@H](C(=O)O)C(C)C)[C@@H](C)O)[C@@H](C)CC [BAI1] (H-YDDRQDIIDLQTEV-OH)	63 ± 6.3	790 ± 93	120 ± 3.8	29 ± 1.9	–	–
CC[C@H](C)[C@H](NC(=O)[C@H](CCCNC(=N)N)NC(=O)[C@H](CO)NC(=O)[C@@H](NC(=O)[C@H](CS)NC(=O)[C@@H](NC(=O)CNC(=O)[C@H](CCCNC(=N)N)NC(=O)[C@H](CC(=O)O)NC(=O)[C@H](CC(=O)O)NC(=O)[C@@H](N)Cc1ccc(O)cc1)[C@@H](C)O)[C@@H](C)O)C(=O)N[C@H](C(=O)N[C@H](C(=O)N[C@@H](CC(C)C)C(=O)O)[C@@H](C)O)[C@@H](C)O [SSTR1 Human] (H-YDDRGTCTSRITTL-OH)	50 ± 3.2	200 ± 34	–	28 ± 2	76 ± 1.5	–
CC[C@H](C)[C@H](NC(=O)[C@H](CCCNC(=N)N)NC(=O)[C@H](CO)NC(=O)[C@H](C)NC(=O)[C@H](CS)NC(=O)[C@@H](NC(=O)CNC(=O)[C@H](CCCNC(=N)N)NC(=O)[C@H](CC(=O)O)NC(=O)[C@H](CC(=O)O)NC(=O)[C@@H](N)Cc1ccc(O)cc1)[C@@H](C)O)C(=O)N[C@@H](CO)C(=O)N[C@H](C(=O)N[C@@H](CC(C)C)C(=O)O)[C@@H](C)O [SSTR1 Mouse] (H-YDDRGTCASRISTL-OH)	–	> 1000	270 ± 9.1	90 ± 14	–	270 ± 35

The remaining lines, values ahead:

Ki (PSD-95 PDZ1 [1]; [5]) [µM]	Ki (PSD-95 PDZ3) [µM]	Kd (PSD-95 PDZ1 [2]) [µM]	Ki (PSD-95 PDZ2 [3]) [µM]	Kd (PSD-95 PDZ2 [4]) [µM]	Ki (PSD-95 PDZ1 [1]; [6]) [µM]	Structure (SMILES)
100 ± 0.1	370 ± 40	160 ± 12	26 ± 0.4	–	–	CC[C@H](C)[C@H](NC(=O)[C@H](CCCNC(=N)N)NC(=O)[C@H](CCC(=O)O)NC(=O)[C@H](CO)NC(=O)[C@@H](NC(=O)[C@@H](NC(=O)[C@H](CO)NC(=O)[C@H](CCCNC(=N)N)NC(=O)[C@H](CC(=O)O)NC(=O)[C@H](CC(=O)O)NC(=O)[C@@H](N)Cc1ccc(O)cc1)C(C)C)C(C)C)C(=O)N[C@@H](CO)C(=O)N[C@@H](CO)C(=O)N[C@H](C(=O)O)C(C)C [5-HTR2C] (H-YDDRSVVSERISSV-OH)
–	600 ± 67	–	450 ± 58	–	750 ± 80	CC[C@H](C)[C@H](NC(=O)[C@H](CCCNC(=N)N)NC(=O)[C@H](CCCNC(=N)N)NC(=O)[C@H](CC(=O)O)NC(=O)[C@H](CC(=O)O)NC(=O)[C@@H](N)Cc1ccc(O)cc1)C(=O)N1CCC[C@H]1C(=O)N[C@@H](CC(C)C)C(=O)N[C@H](C(=O)N[C@@H](CCCNC(=N)N)C(=O)N[C@H](C(=O)N[C@H](C(=O)N[C@H](C(=O)N[C@@H](Cc1ccccc1)C(=O)O)[C@@H](C)O)[C@@H](C)O)[C@@H](C)O)[C@@H](C)O [SSTR4 Human] (H-YDDRRIPLTRTTTF-OH)
